Consider 22 molecules from patent US7981903B2, “2-[2-{phenylamino}-1H-pyrrolo[2,3-D]pyrimidin-4-yl)amino] benzamide derivatives as IGF-1R inhibitors for the treatment of cancer” (GlaxoSmithKline LLC, priority 2007, dated 2011).

For one assay, the target named is ALK (Homo sapiens, UniProt Q9UM73). In words: ALK enzyme assay (HTRF). As to conditions: 0.25 nM ALK, 15.0 μM ATP, values given as pIC50 category. The assay is classed as biochemical. In a few lines:
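Final compound range 0.00017 to 10 μM (twelve 1:3 dilutions). Kinase reaction with ATP and biotinylated synthetic peptide runs 120 min at 20° C, stopped with EDTA; phosphotyrosine detected by HTRF after 60 min. Inhibition referenced to DMSO (1%) and EDTA (0.1 M) controls, curve-fitted.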
(TR-FRET usually uses a lanthanide donor and a delayed reading to cut background.)

The next assay deals with NCI-H929. Briefly: Inhibition of cell proliferation (CellTiter-Glo or InCell analyzer), NCI-H929. The assay is classed as cell-based. As to conditions: Homo sapiens, 72 h / 3 days, values given as IC50 category. In a few lines: In one
A general note: Cellular ATP, detected with luciferase, serves as a proxy for viable cell number.

Assay [1] addresses T1, NIH-3T3 cells overexpressing human IGF-1R (Homo sapiens, UniProt P08069).
T1 construct: expressed in transfected cells; host or cells: NIH-3T3 (mouse fibroblasts)
Briefly: IGF-1R cellular autophosphorylation (DELFIA). The assay is classed as cell-based. Summed up: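 Receptor autophosphorylation measured by DELFIA, capturing IGF-1R or IRβ and detecting with europium anti-pTyr, reported as percent of IGF-1- or insulin-stimulated signal. Compounds (30 uM to 1.5 nM) added 2 h before ligand, then 15 min stimulation (IGF-1 30 ng/ml or insulin 3 ug/ml).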

T1 sequence (P08069 31-1367): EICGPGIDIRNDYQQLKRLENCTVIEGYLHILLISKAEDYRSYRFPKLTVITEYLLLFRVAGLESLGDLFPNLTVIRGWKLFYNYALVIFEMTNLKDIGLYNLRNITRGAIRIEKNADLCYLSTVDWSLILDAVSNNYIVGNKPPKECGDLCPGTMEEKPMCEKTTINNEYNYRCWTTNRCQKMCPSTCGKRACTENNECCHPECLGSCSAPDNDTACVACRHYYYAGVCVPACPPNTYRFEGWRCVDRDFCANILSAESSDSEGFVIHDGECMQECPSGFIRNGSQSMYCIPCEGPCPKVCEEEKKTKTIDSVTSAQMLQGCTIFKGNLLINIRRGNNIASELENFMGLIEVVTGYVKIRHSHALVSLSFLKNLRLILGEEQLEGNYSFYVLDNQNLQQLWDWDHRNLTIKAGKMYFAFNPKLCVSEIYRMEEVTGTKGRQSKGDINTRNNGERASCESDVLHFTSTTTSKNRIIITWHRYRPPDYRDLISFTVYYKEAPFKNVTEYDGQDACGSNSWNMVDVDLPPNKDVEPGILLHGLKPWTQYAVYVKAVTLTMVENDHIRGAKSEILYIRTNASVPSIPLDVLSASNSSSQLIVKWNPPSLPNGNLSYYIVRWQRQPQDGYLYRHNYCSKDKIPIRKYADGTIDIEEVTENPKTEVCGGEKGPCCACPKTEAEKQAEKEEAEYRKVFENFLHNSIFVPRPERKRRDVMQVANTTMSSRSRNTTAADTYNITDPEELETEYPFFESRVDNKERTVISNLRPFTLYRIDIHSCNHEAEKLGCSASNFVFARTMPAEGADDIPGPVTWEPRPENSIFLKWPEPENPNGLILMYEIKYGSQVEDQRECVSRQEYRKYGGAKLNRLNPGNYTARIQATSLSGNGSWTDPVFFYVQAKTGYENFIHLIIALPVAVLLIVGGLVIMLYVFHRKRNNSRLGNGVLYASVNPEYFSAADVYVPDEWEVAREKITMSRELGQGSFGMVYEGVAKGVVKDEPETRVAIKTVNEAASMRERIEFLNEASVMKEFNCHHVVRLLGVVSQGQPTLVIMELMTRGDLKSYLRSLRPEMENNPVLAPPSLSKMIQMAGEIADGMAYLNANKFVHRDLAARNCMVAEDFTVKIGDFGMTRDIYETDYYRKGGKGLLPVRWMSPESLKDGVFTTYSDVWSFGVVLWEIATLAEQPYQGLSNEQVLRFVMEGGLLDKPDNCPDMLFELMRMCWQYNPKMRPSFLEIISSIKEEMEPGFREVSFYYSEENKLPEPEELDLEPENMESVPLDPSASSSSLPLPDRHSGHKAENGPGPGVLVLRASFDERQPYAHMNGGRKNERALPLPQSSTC
Chain of ALK (Q9UM73 19-1620): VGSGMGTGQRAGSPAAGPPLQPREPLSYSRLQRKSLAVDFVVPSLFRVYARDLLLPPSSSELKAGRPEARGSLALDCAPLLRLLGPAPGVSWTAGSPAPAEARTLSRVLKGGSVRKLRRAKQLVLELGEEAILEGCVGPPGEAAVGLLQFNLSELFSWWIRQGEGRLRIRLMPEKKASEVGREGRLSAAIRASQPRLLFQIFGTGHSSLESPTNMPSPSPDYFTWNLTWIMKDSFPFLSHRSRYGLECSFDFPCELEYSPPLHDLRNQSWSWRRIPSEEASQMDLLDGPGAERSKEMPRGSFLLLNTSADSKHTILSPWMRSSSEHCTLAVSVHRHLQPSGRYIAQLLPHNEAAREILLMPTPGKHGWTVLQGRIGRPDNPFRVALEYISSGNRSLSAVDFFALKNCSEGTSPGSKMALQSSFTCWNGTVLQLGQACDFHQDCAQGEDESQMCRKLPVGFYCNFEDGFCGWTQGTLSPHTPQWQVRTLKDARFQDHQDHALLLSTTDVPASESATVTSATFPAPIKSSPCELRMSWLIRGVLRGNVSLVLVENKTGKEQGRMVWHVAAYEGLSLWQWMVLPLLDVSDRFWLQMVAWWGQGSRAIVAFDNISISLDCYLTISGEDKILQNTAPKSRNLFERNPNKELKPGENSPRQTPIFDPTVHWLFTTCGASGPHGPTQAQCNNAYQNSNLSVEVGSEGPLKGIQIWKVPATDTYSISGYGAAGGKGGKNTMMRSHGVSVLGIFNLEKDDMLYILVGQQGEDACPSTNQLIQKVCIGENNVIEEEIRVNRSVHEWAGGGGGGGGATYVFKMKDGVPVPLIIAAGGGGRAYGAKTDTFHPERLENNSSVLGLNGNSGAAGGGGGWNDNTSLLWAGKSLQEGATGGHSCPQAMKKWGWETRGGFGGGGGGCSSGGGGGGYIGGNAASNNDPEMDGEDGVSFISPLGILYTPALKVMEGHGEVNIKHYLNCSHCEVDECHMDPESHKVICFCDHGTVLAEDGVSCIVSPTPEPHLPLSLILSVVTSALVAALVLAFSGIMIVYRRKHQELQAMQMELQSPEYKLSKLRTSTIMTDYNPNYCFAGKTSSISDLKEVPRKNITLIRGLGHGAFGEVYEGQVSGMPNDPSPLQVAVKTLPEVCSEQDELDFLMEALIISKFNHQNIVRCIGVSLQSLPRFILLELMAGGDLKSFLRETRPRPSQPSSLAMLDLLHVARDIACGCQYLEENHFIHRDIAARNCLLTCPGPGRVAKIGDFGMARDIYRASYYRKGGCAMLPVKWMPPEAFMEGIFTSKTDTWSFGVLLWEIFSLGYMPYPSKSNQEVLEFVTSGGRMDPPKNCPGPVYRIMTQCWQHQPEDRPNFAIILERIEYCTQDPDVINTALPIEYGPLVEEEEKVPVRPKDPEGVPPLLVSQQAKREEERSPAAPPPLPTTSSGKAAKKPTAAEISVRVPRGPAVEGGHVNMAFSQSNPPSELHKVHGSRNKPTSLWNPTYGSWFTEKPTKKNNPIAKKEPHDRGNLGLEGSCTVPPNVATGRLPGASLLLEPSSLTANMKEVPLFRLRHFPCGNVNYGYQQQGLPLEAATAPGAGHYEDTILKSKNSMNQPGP

A word on the IC50: it is the concentration that inhibits the measured activity by half. Low readings indicate inhibition by little substance, high ones a need for much substance. Turning to `COc1cc2c(cc1Nc1nc(Nc3cccc(F)c3C(=O)NC(C)C)c3cc[nH]c3n1)N(C(=O)CN(C)C)CC2` [Example 158, 2-[(2-{[1-(N,N-dimethylglycyl)-5-(methyloxy)-2,3-dihydro-1H-indol-6-yl]amino}-1H-pyrrolo[2,3-d]pyrimidin-4-yl)amino]-6-fluoro-N-(1-methylethyl)benzamide], the IC50 was 0.251 to 1 nM on ALK, 250 to 1000 nM in the assay on NCI-H929 and 100 to 500 nM in assay [1].
For the molecule `CNC(=O)c1c(Nc2nc(Nc3cc4c(cc3OC)CCCN4C(=O)CN(C)C)nc3[nH]ccc23)ccc(F)c1F` [Example 163, 6-[(2-{[1-(N,N-dimethylglycyl)-6-(methyloxy)-1,2,3,4-tetrahydro-7-quinolinyl]amino}-1H-pyrrolo[2,3-d]pyrimidin-4-yl)amino]-2,3-difluoro-N-methylbenzamide], the IC50 on ALK was 1.26 to 3.98 nM; in the assay with NCI-H929, less than 250 nM; in assay [1], less than 100 nM.
Taken in the same sequence, the figures for `CCC(C)N1CCc2cc(OC)c(Nc3nc(Nc4cccc(F)c4C(N)=O)c4cc[nH]c4n3)cc2C1` (stereo not shown) [Example 237, 2-fluoro-6-[(2-{[6-(methyloxy)-2-(1-methylpropyl)-1,2,3,4-tetrahydro-7-isoquinolinyl]amino}-1H-pyrrolo[2,3-d]pyrimidin-4-yl)amino]benzamide] were 1.26 to 3.98 nM, less than 250 nM and 100 to 500 nM.
As to `COc1cc(N2CCOCC2)ccc1Nc1nc(Nc2cc(F)ccc2C(N)=O)c2cc[nH]c2n1` [Example 83, 4-fluoro-2-[(2-{[2-(methyloxy)-4-(4-morpholinyl)phenyl]amino}-1H-pyrrolo[2,3-d]pyrimidin-4-yl)amino]benzamide], the IC50 is 5.01 to 200 nM against ALK, 250 to 1000 nM in the assay with NCI-H929 and less than 100 nM in assay [1].
For the molecule `COc1cc2c(cc1Nc1nc(Nc3cccc(F)c3C(N)=O)c3cc[nH]c3n1)N(C(=O)CN1CCCC1)CC2` [Example 138, 2-fluoro-6-[(2-{[5-(methyloxy)-1-(1-pyrrolidinylacetyl)-2,3-dihydro-1H-indol-6-yl]amino}-1H-pyrrolo[2,3-d]pyrimidin-4-yl)amino]benzamide], the IC50 was 1.26 to 3.98 nM on ALK, less than 250 nM with NCI-H929 and less than 100 nM in assay [1].
As for `COc1cc(N2CCC(N3CCN(S(C)(=O)=O)CC3)CC2)ccc1Nc1nc(Nc2cccc(F)c2C(N)=O)c2cc[nH]c2n1` [Example 113, 2-fluoro-6-({2-[(2-(methyloxy)-4-{4-[4-(methylsulfonyl)-1-piperazinyl]-1-piperidinyl}phenyl)amino]-1H-pyrrolo[2,3-d]pyrimidin-4-yl}amino)benzamide], the 50% inhibitory concentration (IC50) on ALK was 0.251 to 1 nM; with NCI-H929 it was less than 250 nM; in assay [1] it was less than 100 nM.
On to `COc1cc(N2CCC(C3CCN(CCS(C)(=O)=O)CC3)CC2)ccc1Nc1nc(Nc2cccc(F)c2C(N)=O)c2cc[nH]c2n1` [Example 112, 2-fluoro-6-({2-[(2-(methyloxy)-4-{1′-[2-(methylsulfonyl)ethyl]-4,4′-bipiperidin-1-yl}phenyl)amino]-1H-pyrrolo[2,3-d]pyrimidin-4-yl}amino)benzamide], for which the IC50 on ALK is 0.251 to 1 nM; with NCI-H929, less than 250 nM; in assay [1] it was 100 to 500 nM.
Turning to `COc1cc(N2CCN(C(C)C)CC2)c(F)cc1Nc1nc(Nc2cccc(F)c2C(N)=O)c2cc[nH]c2n1` [Example 48, 2-fluoro-6-[(2-{[5-fluoro-4-[4-(1-methylethyl)-1-piperazinyl]-2-(methyloxy)phenyl]amino}-1H-pyrrolo[2,3-d]pyrimidin-4-yl)amino]benzamide], the results for the concentration for half-maximal inhibition (IC50) (against ALK; in the assay on NCI-H929; in assay [1]) were 0.251 to 1 nM, less than 250 nM and 100 to 500 nM, respectively.
Take `COc1cc2c(cc1Nc1nc(Nc3cccc(F)c3C(N)=O)c3cc[nH]c3n1)CN(C(=O)CN(C)C)CC2` [Example 123, 2-[(2-{[2-(N,N-dimethylglycyl)-6-(methyloxy)-1,2,3,4-tetrahydro-7-isoquinolinyl]amino}-1H-pyrrolo[2,3-d]pyrimidin-4-yl)amino]-6-fluorobenzamide]: the figures for the IC50 (against ALK; in the assay on NCI-H929; in assay [1]) were 1.26 to 3.98 nM, less than 250 nM and 100 to 500 nM, respectively.
For `CNC(=O)c1c(F)cccc1Nc1nc(Nc2cc(NC(=O)CN(C)C)ccc2OC)nc2[nH]ccc12` [Example 245, 2-[(2-{[5-[(N,N-dimethylglycyl)amino]-2-(methyloxy)phenyl]amino}-1H-pyrrolo[2,3-d]pyrimidin-4-yl)amino]-6-fluoro-N-methylbenzamide], the results for the IC50 (on ALK; in the assay on NCI-H929; in assay [1]) were 0.251 to 1 nM, less than 250 nM and more than 500 nM, respectively.
The matching figures for `CCN(CC)CC(=O)N1CCc2cc(OC)c(Nc3nc(Nc4cccc(F)c4C(N)=O)c4cc[nH]c4n3)cc21` [Example 136, 2-[(2-{[1-(N,N-diethylglycyl)-5-(methyloxy)-2,3-dihydro-1H-indol-6-yl]amino}-1H-pyrrolo[2,3-d]pyrimidin-4-yl)amino]-6-fluorobenzamide]: 1.26 to 3.98 nM, less than 250 nM and less than 100 nM.
Take `CCCN1CCCC(c2ccc(Nc3nc(Nc4cc(F)ccc4C(N)=O)c4cc[nH]c4n3)c(OC)c2)C1` (stereo not shown) [Example 71, 4-fluoro-2-[(2-{[2-(methyloxy)-4-(1-propyl-3-piperidinyl)phenyl]amino}-1H-pyrrolo[2,3-d]pyrimidin-4-yl)amino]benzamide]: the half-maximal inhibitory concentration (IC50) against ALK is 0.251 to 1 nM; in the assay with NCI-H929, less than 250 nM; in assay [1], less than 100 nM.
Taken in the same sequence, the figures for `COc1cc(N2CCN(C(C)C)CC2)ccc1Nc1nc(Nc2cccc3c2C(=O)NC3)c2cc[nH]c2n1` [Example 199, 7-[(2-{[4-[4-(1-methylethyl)-1-piperazinyl]-2-(methyloxy)phenyl]amino}-1H-pyrrolo[2,3-d]pyrimidin-4-yl)amino]-2,3-dihydro-1H-isoindol-1-one] were 0.251 to 1 nM, less than 250 nM and less than 100 nM.
For the molecule `COc1c(Nc2nc(Nc3cccc(F)c3C(N)=O)c3cc[nH]c3n2)ccc(N2CCN(C(C)C)CC2)c1F` [Example 51, 2-fluoro-6-[(2-{[3-fluoro-4-[4-(1-methylethyl)-1-piperazinyl]-2-(methyloxy)phenyl]amino}-1H-pyrrolo[2,3-d]pyrimidin-4-yl)amino]benzamide], the values for the IC50 (on ALK; in the assay with NCI-H929; in assay [1]) were 1.26 to 3.98 nM, 250 to 1000 nM and more than 500 nM, respectively.
The matching figures for `COc1cc(N2CCC(N3CC[C@@H](F)C3)CC2)ccc1Nc1nc(Nc2cccc(F)c2C(N)=O)c2cc[nH]c2n1` [Example 44, 2-fluoro-6-[(2-{[4-{4-[(3R)-3-fluoro-1-pyrrolidinyl]-1-piperidinyl}-2-(methyloxy)phenyl]amino}-1H-pyrrolo[2,3-d]pyrimidin-4-yl)amino]benzamide]: 1.26 to 3.98 nM, less than 250 nM and more than 500 nM.
As for `COc1cc2c(cc1Nc1nc(Nc3cccc(F)c3C(N)=O)c3cc[nH]c3n1)N(C(=O)CN)CC2` [Example 141, 2-fluoro-6-[(2-{[1-glycyl-5-(methyloxy)-2,3-dihydro-1H-indol-6-yl]amino}-1H-pyrrolo[2,3-d]pyrimidin-4-yl)amino]benzamide], the IC50 was 1.26 to 3.98 nM against ALK, 250 to 1000 nM with NCI-H929 and more than 500 nM in assay [1].
Taken in the same sequence, the figures for `COc1cc2c(cc1Nc1nc(Nc3cccc(F)c3C(N)=O)c3cc[nH]c3n1)CN(CCF)CC2` [Example 233, 2-fluoro-6-[(2-{[2-(2-fluoroethyl)-6-(methyloxy)-1,2,3,4-tetrahydro-7-isoquinolinyl]amino}-1H-pyrrolo[2,3-d]pyrimidin-4-yl)amino]benzamide] were 1.26 to 3.98 nM, less than 250 nM and 100 to 500 nM.
On to `CNC(=O)c1c(F)cc(Cl)cc1Nc1nc(Nc2cc3c(cc2OC)CCCN3C(=O)CN2CCCC2)nc2[nH]ccc12` [Example 174, 4-chloro-2-fluoro-N-methyl-6-[(2-{[6-(methyloxy)-1-(1-pyrrolidinylacetyl)-1,2,3,4-tetrahydro-7-quinolinyl]amino}-1H-pyrrolo[2,3-d]pyrimidin-4-yl)amino]benzamide], for which the half-inhibitory concentration (IC50) was 1.26 to 3.98 nM on ALK, 250 to 1000 nM with NCI-H929 and 100 to 500 nM in assay [1].
As for `CCCNC(=O)c1c(F)cccc1Nc1nc(Nc2cc3c(cc2OC)CCN3C(=O)CN(C)C)nc2[nH]ccc12` [Example 156, 2-[(2-{[1-(N,N-dimethylglycyl)-5-(methyloxy)-2,3-dihydro-1H-indol-6-yl]amino}-1H-pyrrolo[2,3-d]pyrimidin-4-yl)amino]-6-fluoro-N-propylbenzamide], the values for the concentration for half-maximal inhibition (IC50) (on ALK; with NCI-H929; in assay [1]) were 0.251 to 1 nM, 250 to 1000 nM and 100 to 500 nM, respectively.
Regarding `COc1cc2c(cc1Nc1nc(Nc3cc(F)cc(F)c3C(=O)NCc3ccc(F)cc3)c3cc[nH]c3n1)N(C(=O)CN(C)C)CC2` [Example 155, 2-[(2-{[1-(N,N-dimethylglycyl)-5-(methyloxy)-2,3-dihydro-1H-indol-6-yl]amino}-1H-pyrrolo[2,3-d]pyrimidin-4-yl)amino]-4,6-difluoro-N-[(4-fluorophenyl)methyl]benzamide], the IC50 on ALK is 5.01 to 200 nM; in the assay with NCI-H929, more than 1000 nM; in assay [1] it was 100 to 500 nM.
As to `COc1ccc(N2CCN(C)CC2)cc1Nc1nc(Nc2ccccc2C(N)=O)c2cc[nH]c2n1` [Example 9, 2-[(2-{[2-(methyloxy)-5-(4-methyl-1-piperazinyl)phenyl]amino}-1H-pyrrolo[2,3-d]pyrimidin-4-yl)amino]benzamide], the 50% inhibitory concentration (IC50) was 1.26 to 3.98 nM on ALK and 100 to 500 nM in assay [1].
As for `COc1cc(N2CCC(O)CC2)ccc1Nc1nc(Nc2cc(F)c(F)cc2C(N)=O)c2cc[nH]c2n1` [Example 99], the 50% inhibitory concentration (IC50) on ALK is 0.251 to 1 nM; in assay [1] it was less than 100 nM.
